What was measured:
MMP-9 = molecular target: T1, MMP-9 (Homo sapiens, UniProt P14780); test: MMP-9 inhibition assay (fluorogenic peptide substrate); format: biochemical; set-up: remaining enzyme activity (% of control): scale not given here; conditions: for remaining enzyme activity (% of control): MMP-9; for IC50: mean ± SE, n.d: not detected, Fig. 5e prints no unit, µM, read-out: IC50
T1 construct: purchased Sino Biological 10327-HNAH
Summary of the method: (§1)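 Hydrolysis of DNP-Pro-Leu-Gly-Met-Trp-Ser-Arg (25 μM final) was tracked kinetically at em 360 nm over 30 min. Enzymes, APMA-activated and at 10 nM (MMP-9) or 6.5 nM (MMP-2) final, sat 30 min at RT with inhibitor in pH 7.5 Tris buffer with CaCl2 and Brij 35 first. Logistic fitting of Vmax against concentration gave IC50, in triplicate.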

MMP-2 = molecular target: T2, MMP-2 (Homo sapiens, UniProt P08253); test: MMP-2 inhibition assay (fluorogenic peptide substrate); format: biochemical; conditions: for remaining activity (%): MMP-2; for IC50: mean ± SE, n.d: not detected, Fig. 5d unit inferred, µM, read-out: IC50
T2 construct: purchased Sino Biological 10082-HNAH
T2 sequence (P08253 110-660): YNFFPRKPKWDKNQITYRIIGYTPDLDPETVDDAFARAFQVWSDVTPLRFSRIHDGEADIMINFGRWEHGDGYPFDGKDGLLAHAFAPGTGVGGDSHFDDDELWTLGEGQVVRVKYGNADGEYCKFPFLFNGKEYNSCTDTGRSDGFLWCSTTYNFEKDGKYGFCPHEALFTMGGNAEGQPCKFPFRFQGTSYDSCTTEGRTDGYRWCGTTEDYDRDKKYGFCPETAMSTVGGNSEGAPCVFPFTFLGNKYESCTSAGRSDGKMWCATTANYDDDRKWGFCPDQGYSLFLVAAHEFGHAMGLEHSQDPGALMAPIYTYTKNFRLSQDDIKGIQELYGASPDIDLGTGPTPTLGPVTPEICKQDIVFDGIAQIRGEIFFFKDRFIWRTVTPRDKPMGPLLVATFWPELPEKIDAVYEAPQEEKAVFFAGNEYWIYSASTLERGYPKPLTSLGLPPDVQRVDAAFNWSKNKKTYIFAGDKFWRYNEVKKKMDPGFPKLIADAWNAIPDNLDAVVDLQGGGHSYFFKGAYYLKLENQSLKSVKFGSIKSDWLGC
Summary of the method: as §1

T1 sequence (P14780 107-707 limits assumed): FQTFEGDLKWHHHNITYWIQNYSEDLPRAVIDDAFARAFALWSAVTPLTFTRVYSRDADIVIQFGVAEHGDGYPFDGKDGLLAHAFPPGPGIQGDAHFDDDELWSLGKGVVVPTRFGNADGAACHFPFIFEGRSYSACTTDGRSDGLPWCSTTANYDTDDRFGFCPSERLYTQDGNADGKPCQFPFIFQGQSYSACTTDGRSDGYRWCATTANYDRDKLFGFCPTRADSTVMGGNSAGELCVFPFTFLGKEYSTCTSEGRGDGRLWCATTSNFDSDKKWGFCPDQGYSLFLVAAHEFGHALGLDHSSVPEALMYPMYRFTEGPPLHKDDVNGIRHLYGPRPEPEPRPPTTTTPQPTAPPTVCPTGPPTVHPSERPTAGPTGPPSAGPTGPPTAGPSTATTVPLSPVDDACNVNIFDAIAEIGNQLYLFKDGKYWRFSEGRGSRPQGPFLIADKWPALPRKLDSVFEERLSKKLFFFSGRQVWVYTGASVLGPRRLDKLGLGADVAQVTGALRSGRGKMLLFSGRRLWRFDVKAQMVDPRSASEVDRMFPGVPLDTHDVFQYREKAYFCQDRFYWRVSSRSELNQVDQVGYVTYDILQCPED

| SMILES | remaining enzyme activity (% of control) (MMP-9; concentration 0.08 µM) | remaining enzyme activity (% of control) (MMP-9; concentration 0.39 µM) | remaining enzyme activity (% of control) (MMP-9; concentration 1.95 µM) | remaining enzyme activity (% of control) (MMP-9; concentration 9.75 µM) | remaining enzyme activity (% of control) (MMP-9; concentration 48.76 µM) | remaining enzyme activity (% of control) (MMP-9; concentration 243.80 µM) | remaining enzyme activity (% of control) (MMP-9; concentration 1219.00 µM) | remaining activity (%) (MMP-2; concentration 0.0156 µM) | remaining activity (%) (MMP-2; concentration 0.08 µM) | remaining activity (%) (MMP-2; concentration 0.39 µM) | remaining activity (%) (MMP-2; concentration 1.95 µM) | remaining activity (%) (MMP-2; concentration 9.75 µM) | remaining activity (%) (MMP-2; concentration 48.76 µM) | remaining activity (%) (MMP-2; concentration 243.80 µM) | remaining activity (%) (MMP-2; concentration 1219.00 µM) | IC50 (MMP-2) | IC50 (MMP-9) | other results |
| --- | --- | --- | --- | --- | --- | --- | --- | --- | --- | --- | --- | --- | --- | --- | --- | --- | --- | --- |
| O=C(CNC(=O)NC12CC3CC(CC(C3)C1)C2)NCCSCC(=O)NCc1c[nH]nn1 [66+787 Linker 24] | 99.22 | 101.28 | 105.60 | 109.06 | 90.00 | 81.70 | 47.95 | 107.17 | 100.74 | 89.54 | 101.35 | 92.40 | 87.86 | 72.74 | 41.09 | 861 ± 97.2 µM | – | – |
| O=C(CCCCCCC(=O)NCC12CC3CC(CC(C3)C1)C2)NCc1c[nH]nn1 [66+787 Linker 4] | 101.70 | 95.25 | 95.00 | 100.64 | 91.07 | 93.01 | 79.78 | 93.57 | 87.26 | 84.29 | 79.19 | 76.03 | 60.10 | 68.09 | 72.50 | – | – | – |
| Cc1cc(=O)[nH]c(-n2nc(C)c(CCC(=O)NCCSCC(=O)NCCNC(=O)c3cnc4c(c3)nc(O)n4C)c2C)n1 [693+826 Linker 24] | – | – | 94.32 | – | – | – | – | – | – | – | 93.80 | – | – | – | – | 417 ± 50.3 µM | 358 ± 114 µM | remaining enzyme activity (% of control) (MMP-9; concentration 0.12 µM): 99.26; remaining enzyme activity (% of control) (MMP-9; concentration 0.49 µM): 96.54; remaining enzyme activity (% of control) (MMP-9; concentration 7.81 µM): 95.86; remaining enzyme activity (% of control) (MMP-9; concentration 31.25 µM): 95.02; remaining enzyme activity (% of control) (MMP-9; concentration 125.00 µM): 70.00; remaining enzyme activity (% of control) (MMP-9; concentration 500.00 µM): 41.34; remaining activity (%) (MMP-2; concentration 0.12 µM): 98.54; remaining activity (%) (MMP-2; concentration 0.49 µM): 94.49; remaining activity (%) (MMP-2; concentration 7.81 µM): 81.11; remaining activity (%) (MMP-2; concentration 31.25 µM): 77.57; remaining activity (%) (MMP-2; concentration 125.00 µM): 58.31; remaining activity (%) (MMP-2; concentration 500.00 µM): 52.30 |
| Cc1cc(=O)[nH]c(-n2nc(C)c(CCC(=O)NCCSCC(=O)NCc3c[nH]nn3)c2C)n1 [693+787 Linker 24] | 94.26 | 97.78 | 91.22 | 96.92 | 92.11 | 57.21 | 9.75 | 88.74 | 98.28 | 98.89 | 81.72 | 92.63 | 69.73 | 36.49 | 2.36 | 149 ± 25.1 µM | 270 ± 31.4 µM | – |
